Data set [1] deals with A 172. Description: Growth inhibition of human A172 cells up to 25 uM cotreated with camptothecin measured after 24 hrs by XTT assay. The data set is classed as functional, cell-based.
For data set [2], the system named is PC-3. Description: Growth inhibition of human PC3 cells up to 25 uM cotreated with camptothecin measured after 24 hrs by XTT assay. It is filed as functional, cell-based.
Data set [3] concerns MDA-MB-231. Description: Growth inhibition of human MDA-MB-231 cells up to 25 uM cotreated with camptothecin measured after 24 hrs by XTT assay. It is filed as functional, cell-based.
For data set [4], the system named is NCI-H1299. The experiment in a line: Growth inhibition of human NCI-H1299 cells up to 25 uM cotreated with camptothecin measured after 24 hrs by XTT assay. It is filed as functional, cell-based.
Data set [5] deals with WM 266-4. Description: Growth inhibition of human WM266.4 cells up to 25 uM cotreated with camptothecin measured after 24 hrs by XTT assay. The data set is classed as functional, cell-based.
In data set [6] the test system is WM 266-4. The experiment in a line: Growth inhibition of human WM266.4 cells preincubated for 6 hrs followed compound washout measured after 24 hrs by XTT assay. It is filed as functional.
The subject of data set [7] is A 172. The experiment in a line: Growth inhibition of human A172 cells preincubated for 6 hrs followed compound washout measured after 24 hrs by XTT assay. The data set is classed as functional.
In data set [8] the test system is NCI-H1299. The experiment in a line: Growth inhibition of human NCI-H1299 cells preincubated for 6 hrs followed compound washout measured after 24 hrs by XTT assay. It is filed as functional.
The subject of data set [9] is MDA-MB-231. The experiment in a line: Growth inhibition of human MDA-MB-231 cells preincubated for 6 hrs followed compound washout measured after 24 hrs by XTT assay. The data set is classed as functional.
Data set [10] has as its system PC-3. Description: Growth inhibition of human PC3 cells preincubated for 6 hrs followed compound washout measured after 24 hrs by XTT assay. It is filed as functional.
The subject of data set [11] is WM 266-4. The experiment in a line: Cell cycle arrest in human WM266.4 cells assessed as accumulation at S phase at 10 uM cotreated with chlorambucil after 2 hrs by propidium iodide staining based flow cytometry (reference value: 27%). It is filed as functional.
Data set [12] relates to WM 266-4. The experiment in a line: Antitumor activity against human WM266.4 cells xenografted in athymic Foxn1 nu mouse assessed as tumor growth inhibition at 10 mg/kg, ip cotreated with chlorambucil administered once daily for 3 days followed by resting period of 4 days repeated for 4 weeks starting from 5 days post tumor inoculation. It is filed as functional, organism-based.

For data set [13], the system named is MDA-MB-231. Description: Growth inhibition of human MDA-MB-231 cells preincubated for 6 hrs cotreated with chlorambucil followed compound washout measured after 24 hrs by XTT assay. It is filed as functional.
The subject of data set [14] is Mus musculus. The experiment in a line: Toxicity in athymic Foxn1 nu mouse xenografted with human WM266.4 cells assessed as body weight loss at 10 mg/kg, ip cotreated with chlorambucil administered once daily for 7 days followed by resting period of 2 days repeated for 4 weeks starting from 5 days post tumor inoculation. It is filed as organism-based. Particulars: in vivo.

Data set [15] concerns WM 266-4. The experiment in a line: Cell cycle arrest in human WM266.4 cells assessed as accumulation at G2 phase at 10 uM cotreated with chlorambucil after 8 hrs by propidium iodide staining based flow cytometry (reference value: 11%). The data set is classed as functional.
Data set [16] deals with WM 266-4. The experiment in a line: Cell cycle arrest in human WM266.4 cells assessed as accumulation at G1 phase at 10 uM cotreated with chlorambucil after 24 hrs by propidium iodide staining based flow cytometry (reference value: 59%). It is filed as functional.
Data set [17] deals with NCI-H1299. Description: Growth inhibition of human NCI-H1299 cells preincubated for 6 hrs cotreated with chlorambucil followed compound washout measured after 24 hrs by XTT assay. The data set is classed as functional.
Data set [18] relates to WM 266-4. Description: Cell cycle arrest in human WM266.4 cells assessed as accumulation at S phase at 10 uM cotreated with chlorambucil after 8 hrs by propidium iodide staining based flow cytometry (reference value: 27%). The data set is classed as functional.
Data set [19] deals with DNA topoisomerase 2-alpha (Homo sapiens) (UniProt P11388). Description: Inhibition of human topoisomerase-2alpha assessed as reduction in enzyme-mediated decatenation at 100 uM using kinetoplast DNA as substrate after 25 mins by ethidium bromide staining based agarose gel electrophoresis method.
Chain of DNA topoisomerase 2-alpha (Homo sapiens) (P11388 whole entry): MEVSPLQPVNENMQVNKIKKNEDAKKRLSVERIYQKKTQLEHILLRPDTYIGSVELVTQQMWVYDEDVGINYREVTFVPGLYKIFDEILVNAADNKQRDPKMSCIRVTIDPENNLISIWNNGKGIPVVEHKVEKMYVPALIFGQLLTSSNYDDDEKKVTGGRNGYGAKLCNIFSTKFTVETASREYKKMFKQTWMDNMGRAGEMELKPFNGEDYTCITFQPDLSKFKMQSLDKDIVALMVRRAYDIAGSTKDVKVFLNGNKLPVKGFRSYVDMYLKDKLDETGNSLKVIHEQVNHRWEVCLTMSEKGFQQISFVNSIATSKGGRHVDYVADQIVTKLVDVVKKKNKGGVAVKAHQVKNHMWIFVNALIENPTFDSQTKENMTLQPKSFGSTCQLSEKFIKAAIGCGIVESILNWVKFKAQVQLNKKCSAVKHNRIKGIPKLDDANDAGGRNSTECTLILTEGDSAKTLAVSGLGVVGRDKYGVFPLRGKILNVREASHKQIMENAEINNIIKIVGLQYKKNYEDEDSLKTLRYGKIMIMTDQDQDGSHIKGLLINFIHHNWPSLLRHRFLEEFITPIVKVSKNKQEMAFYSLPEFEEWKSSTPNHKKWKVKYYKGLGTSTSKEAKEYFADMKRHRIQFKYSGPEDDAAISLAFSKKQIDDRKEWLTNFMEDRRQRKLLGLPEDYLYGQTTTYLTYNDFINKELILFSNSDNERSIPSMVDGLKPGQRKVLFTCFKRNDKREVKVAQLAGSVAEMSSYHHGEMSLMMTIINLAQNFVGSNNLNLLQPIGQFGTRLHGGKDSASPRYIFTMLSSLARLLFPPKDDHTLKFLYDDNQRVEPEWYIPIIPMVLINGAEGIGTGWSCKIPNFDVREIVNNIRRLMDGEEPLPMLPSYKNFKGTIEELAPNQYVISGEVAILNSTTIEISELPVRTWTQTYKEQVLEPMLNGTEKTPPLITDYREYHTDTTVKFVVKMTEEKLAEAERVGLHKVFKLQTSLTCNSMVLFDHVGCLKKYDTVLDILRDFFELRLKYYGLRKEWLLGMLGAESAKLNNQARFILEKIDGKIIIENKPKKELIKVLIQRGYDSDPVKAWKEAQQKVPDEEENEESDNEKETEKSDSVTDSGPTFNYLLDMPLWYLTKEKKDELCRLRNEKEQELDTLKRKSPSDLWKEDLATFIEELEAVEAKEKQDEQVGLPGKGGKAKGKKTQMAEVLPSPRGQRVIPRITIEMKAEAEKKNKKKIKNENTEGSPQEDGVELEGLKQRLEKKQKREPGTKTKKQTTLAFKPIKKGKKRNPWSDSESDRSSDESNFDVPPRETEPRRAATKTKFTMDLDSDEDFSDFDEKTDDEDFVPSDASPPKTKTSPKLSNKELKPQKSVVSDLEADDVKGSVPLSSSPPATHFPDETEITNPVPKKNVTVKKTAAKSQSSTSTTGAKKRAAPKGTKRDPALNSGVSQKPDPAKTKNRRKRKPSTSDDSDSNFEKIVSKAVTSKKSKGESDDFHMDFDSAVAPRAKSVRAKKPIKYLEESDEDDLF
The test system of data set [20] is WM 266-4. The experiment in a line: Growth inhibition of human WM266.4 cells preincubated for 6 hrs cotreated with chlorambucil followed compound washout measured after 24 hrs by XTT assay. The data set is classed as functional.
The test system of data set [21] is Mus musculus. Description: Toxicity in athymic Foxn1 nu mouse xenografted with human WM266.4 cells assessed as body weight loss at 10 mg/kg, ip cotreated with chlorambucil administered once daily for 3 days followed by resting period of 4 days repeated for 4 weeks starting from 5 days post tumor inoculation. It is filed as organism-based. The settings on record: in vivo.

The target in data set [22] is DNA topoisomerase 2-alpha (Homo sapiens) (UniProt P11388). The experiment in a line: Inhibition of human topoisomerase-2alpha assessed as reduction in enzyme-mediated decatenation at 25 uM using kinetoplast DNA as substrate after 25 mins by ethidium bromide staining based agarose gel electrophoresis method.
Data set [23] concerns WM 266-4. Description: Cell cycle arrest in human WM266.4 cells assessed as accumulation at S phase at 10 uM cotreated with chlorambucil after 24 hrs by propidium iodide staining based flow cytometry (reference value: 27%). The data set is classed as functional.
The test system of data set [24] is A 172. The experiment in a line: Growth inhibition of human A172 cells preincubated for 6 hrs cotreated with chlorambucil followed compound washout measured after 24 hrs by XTT assay. The data set is classed as functional.
Data set [25] concerns WM 266-4. The experiment in a line: Cell cycle arrest in human WM266.4 cells assessed as accumulation at G2 phase at 10 uM cotreated with chlorambucil after 2 hrs by propidium iodide staining based flow cytometry (reference value: 11%). It is filed as functional.
The subject of data set [26] is WM 266-4. The experiment in a line: Antitumor activity against human WM266.4 cells xenografted in athymic Foxn1 nu mouse assessed as tumor growth inhibition at 10 mg/kg, ip cotreated with chlorambucil administered once daily for 7 days followed by resting period of 2 days repeated for 4 weeks starting from 5 days post tumor inoculation. It is filed as functional, organism-based.

Data set [27] concerns WM 266-4. Description: Cell cycle arrest in human WM266.4 cells assessed as accumulation at G1 phase at 10 uM cotreated with chlorambucil after 2 hrs by propidium iodide staining based flow cytometry (reference value: 59%). It is filed as functional.
In data set [28] the test system is PC-3. Description: Growth inhibition of human PC3 cells preincubated for 6 hrs cotreated with chlorambucil followed compound washout measured after 24 hrs by XTT assay. It is filed as functional.
Data set [29] has as its system WM 266-4. The experiment in a line: Cell cycle arrest in human WM266.4 cells assessed as accumulation at G2 phase at 10 uM cotreated with chlorambucil after 24 hrs by propidium iodide staining based flow cytometry (reference value: 11%). The data set is classed as functional.
Data set [30] has as its system WM 266-4. The experiment in a line: Cell cycle arrest in human WM266.4 cells assessed as accumulation at G1 phase at 10 uM cotreated with chlorambucil after 8 hrs by propidium iodide staining based flow cytometry (reference value: 59%). It is filed as functional.

The structures appear in SMILES notation. The source made the active and inactive calls. The rule behind the calls is not given here. Some results are limits rather than exact numbers.

The source of these data is ChEMBL document CHEMBL4190267, “Discovery of potent molecular chimera (CM358) to treat human metastatic melanoma” (Eur J Med Chem, 2017).

With `COc1cc2c(c(OC)c1OC)-c1ccc(OC)c(=O)cc1[C@@H](NC(C)=O)CC2`, the “growth inhibition (GI)” value in data set [1], in [2], in data set [3], in data set [4] and in [5] was “Active” throughout.
As to `O=C(CCCc1ccc(N(CCCl)CCCl)cc1)Nc1ccn([C@@H]2O[C@H](CO)[C@@H](O)[C@@H]2O)c(=O)n1`, the “growth inhibition (GI)” value in data set [6], in data set [7], in data set [8], in data set [9] and in data set [10] was “inactive” each time.
`CN(C)CCN1C(=O)c2cccc3cc(N)cc(c23)C1=O` [AMONAFIDE]: the Activity is reported as 26% in data set [11]; “Toxic” in data set [14]; 23% in [15]; 35% in data set [16]; 44.7% in data set [18]; “Toxic” in data set [21]. Moreover, the Activity in data set [23] is 39%; in data set [25], 9.8%; in data set [27], 63.5%; in [29], 26%; in [30], 29%. The TGI result in data set [12] and in data set [26] was “inactive” throughout. The GI50 in data set [13], in data set [6], in [7], in [17], in data set [8] and in [20] was above 25 µM in each case. Besides, the GI50 in data set [9], in data set [24], in [28] and in data set [10] was above 25 µM each time. Moreover, in data set [19], the inhibition entry is “Active”. Moreover, the inhibition entry in data set [22] is “inactive”.
For the compound `Nc1ccn([C@@H]2O[C@H](COC(=O)CCCc3ccc(N(CCCl)CCCl)cc3)[C@@H](O)[C@@H]2O)c(=O)n1`, the “growth inhibition (GI)” value in data set [6], in data set [7], in [8], in data set [9] and in [10] was “inactive” in each case.
